{"source": "patent US20070128217A1", "about": "(priority 2003, published 2007)", "key": {"[1]": {"tested_on": "antibodies in sera from SARS patients (sera 1a, 1b, 2, 6, 37, 62, London, SARS-yellow, SARS-green)", "type": "binding, human", "design": "Binding of serum 6 to linear peptides of protein X1 of SARS-CoV Urbani / Binding of serum 37 to linear peptides of protein X1 of SARS-CoV Urbani / Binding of serum 6 to looped/cyclic peptide (PEPSCAN-ELISA) / Binding of serum 37 to looped/cyclic peptide (PEPSCAN-ELISA) / Binding of serum 37 to looped/cyclic peptides of protein X1 of SARS-CoV Urbani / Binding of serum 6 to linear peptides of protein X2 / Binding of serum 37 to linear peptides of protein X2 / Binding of serum 37 to looped/cyclic peptides of protein X2 of SARS-CoV Urbani / Binding of serum 6 to linear peptides of protein M of SARS-CoV Urbani / Binding of serum 37 to linear peptides of protein M of SARS-CoV Urbani / Binding of serum 6 to looped/cyclic peptides of protein M of SARS-CoV Urbani / Binding of serum 37 to looped/cyclic peptides of protein M of SARS-CoV Urbani / Binding of serum 6 to linear peptides of protein X3 of SARS-CoV Urbani / Binding of serum 37 to linear peptides of protein X3 of SARS-CoV Urbani / Binding of serum 37 to looped/cyclic peptides of protein X3 of SARS-CoV Urbani / Binding of serum 6 to linear peptides of protein X4 of SARS-CoV Urbani / Binding of serum 37 to linear peptides of protein X4 of SARS-CoV Urbani / Binding of serum 37 to looped/cyclic peptides of protein X4 of SARS-CoV Urbani / Binding of serum 6 to linear peptides of protein X5 of SARS-CoV Urbani / Binding of serum 37 to linear peptides of protein X5 of SARS-CoV Urbani / Binding of serum 37 to looped/cyclic peptides of protein X5 of SARS-CoV Urbani / Binding of serum 6 to linear peptides of protein N of SARS-CoV Urbani / Binding of serum 37 to linear peptides of protein N of SARS-CoV Urbani / Binding of serum 6 to linear peptide (PEPSCAN-ELISA) / Binding of serum 1a to looped/cyclic peptides of protein N of SARS-CoV Urbani / Binding of serum 1b to looped/cyclic peptides of protein N of SARS-CoV Urbani / Binding of serum 2 to looped/cyclic peptides of protein N of SARS-CoV Urbani / Binding of serum 6 to looped/cyclic peptides of protein N of SARS-CoV Urbani / Binding of serum 37 to looped/cyclic peptides of protein N of SARS-CoV Urbani / Binding of serum 62 to looped/cyclic peptides of protein N of SARS-CoV Urbani / Binding of serum London to looped/cyclic peptides of protein N of SARS-CoV Urbani / Binding of serum SARS-green to looped/cyclic peptides of protein N of SARS-CoV Urbani: unit not given here"}, "[2]": {"tested_on": "control sera (pooled serum of ten healthy LUMC hospital workers; commercial negative donor pooled serum from the Dutch bloodbank)", "type": "binding, human", "design": "Binding of Control serum LUMC to linear peptides / Binding of Control serum Blood-bank to linear peptides / Binding of Control serum LUMC to looped peptides / Binding of Control Serum Blood-Bank to Looped peptides / Binding of Control serum LUMC to linear peptides of the protein M of SARS-CoV Urbani / Binding of Control serum Blood-bank to linear peptides of the protein M of SARS-CoV Urbani / Binding of Control serum LUMC to looped peptides of the protein M of SARS-CoV Urbani / Binding of Control Serum Blood-Bank to Looped peptides of the protein M of SARS-CoV Urbani: unit not given here"}, "[3]": {"tested_on": "rabbit serum obtained by immunizing a rabbit with the SARS-CoV strain Frankfurt 1", "type": "binding", "design": "Binding of a rabbit serum to linear peptides / Binding of a rabbit serum to looped peptides / Rabbit serum linear peptides / Rabbit serum looped peptides / Binding of a rabbit serum to linear peptides of protein N of SARS-CoV Urbani (Rabbit serum linear peptides) / Binding of a rabbit serum to looped/cyclic peptides of protein N of SARS-CoV Urbani (Rabbit serum looped peptides): unit not given here"}}, "data": [{"sequence": "KEITVATSRTLSYYK", "values": [{"measurement": "Binding of serum 1a to linear peptides of protein M of SARS-CoV Urbani", "setting": "[1]", "result": 0.7}, {"measurement": "Binding of serum 1a to looped/cyclic peptides of protein M of SARS-CoV Urbani", "setting": "[1]", "result": 0.6}, {"measurement": "Binding of serum 1b to linear peptides of protein M of SARS-CoV Urbani", "setting": "[1]", "result": 0.6}, {"measurement": "Binding of serum 1b to looped/cyclic peptides of protein M of SARS-CoV Urbani", "setting": "[1]", "result": 0.5}, {"measurement": "Binding of serum 2 to linear peptides of protein M of SARS-CoV Urbani", "setting": "[1]", "result": 0.6}, {"measurement": "Binding of serum 2 to looped/cyclic peptides of protein M of SARS-CoV Urbani", "setting": "[1]", "result": 0.8}, {"measurement": "Binding of serum 6 to linear peptides of protein M of SARS-CoV Urbani", "setting": "[1]", "result": 0.0}, {"measurement": "Binding of serum 6 to looped/cyclic peptides of protein M of SARS-CoV Urbani", "setting": "[1]", "result": 1.3}, {"measurement": "Binding of serum 37 to linear peptides of protein M of SARS-CoV Urbani", "setting": "[1]", "result": 0.5}, {"measurement": "Binding of serum 37 to looped/cyclic peptides of protein M of SARS-CoV Urbani", "setting": "[1]", "result": 0.6}, {"measurement": "Binding of serum 62 to linear peptides of protein M of SARS-CoV Urbani", "setting": "[1]", "result": 0.6}, {"measurement": "Binding of serum 62 to looped/cyclic peptides of protein M of SARS-CoV Urbani", "setting": "[1]", "result": 0.5}, {"measurement": "Binding of serum London to linear peptides of protein M of SARS-CoV Urbani", "setting": "[1]", "result": 0.3}, {"measurement": "Binding of serum London to looped/cyclic peptides of protein M of SARS-CoV Urbani", "setting": "[1]", "result": 0.4}, {"measurement": "Binding of serum SARS-green to linear peptides of protein M of SARS-CoV Urbani", "setting": "[1]", "result": 0.4}, {"measurement": "Binding of serum SARS-green to looped/cyclic peptides of protein M of SARS-CoV Urbani", "setting": "[1]", "result": 0.2}, {"measurement": "Binding of serum SARS-yellow to linear peptides of protein M of SARS-CoV Urbani", "setting": "[1]", "result": 0.2}, {"measurement": "Binding of serum SARS-yellow to looped/cyclic peptides of protein M of SARS-CoV Urbani", "setting": "[1]", "result": 0.5}, {"measurement": "Binding of Control Serum Blood-Bank to Looped peptides of the protein M of SARS-CoV Urbani", "setting": "[2]", "result": 0.7}, {"measurement": "Binding of Control serum Blood-bank to linear peptides of the protein M of SARS-CoV Urbani", "setting": "[2]", "result": 0.8}, {"measurement": "Binding of Control serum LUMC to linear peptides of the protein M of SARS-CoV Urbani", "setting": "[2]", "result": 0.6}, {"measurement": "Binding of Control serum LUMC to looped peptides of the protein M of SARS-CoV Urbani", "setting": "[2]", "result": 0.7}, {"measurement": "Rabbit serum linear peptides", "setting": "[3]", "result": 0.4}, {"measurement": "Rabbit serum looped peptides", "setting": "[3]", "result": 0.5}]}, {"sequence": "KEPCPSGTYEGNSPF", "values": [{"measurement": "Binding of serum 1a to linear peptides of protein X4 of SARS-CoV Urbani", "setting": "[1]", "result": 0.7}, {"measurement": "Binding of serum 1a to looped/cyclic peptides of protein X4 of SARS-CoV Urbani", "setting": "[1]", "result": 0.8}, {"measurement": "Binding of serum 1b to linear peptides of protein X4 of SARS-CoV Urbani", "setting": "[1]", "result": 0.6}, {"measurement": "Binding of serum 1b to looped/cyclic peptides of protein X4 of SARS-CoV Urbani", "setting": "[1]", "result": 0.6}, {"measurement": "Binding of serum 2 to linear peptides of protein X4 of SARS-CoV Urbani", "setting": "[1]", "result": 0.4}, {"measurement": "Binding of serum 2 to looped/cyclic peptides of protein X4 of SARS-CoV Urbani", "setting": "[1]", "result": 0.6}, {"measurement": "Binding of serum 6 to linear peptides of protein X4 of SARS-CoV Urbani", "setting": "[1]", "result": 0.4}, {"measurement": "Binding of serum 6 to looped/cyclic peptides of protein X4 of SARS-CoV Urbani", "setting": "[1]", "result": 0.6}, {"measurement": "Binding of serum 37 to linear peptides of protein X4 of SARS-CoV Urbani", "setting": "[1]", "result": 0.7}, {"measurement": "Binding of serum 37 to looped/cyclic peptides of protein X4 of SARS-CoV Urbani", "setting": "[1]", "result": 0.7}, {"measurement": "Binding of serum 62 to linear peptides of protein X4 of SARS-CoV Urbani", "setting": "[1]", "result": 0.8}, {"measurement": "Binding of serum 62 to looped/cyclic peptides of protein X4 of SARS-CoV Urbani", "setting": "[1]", "result": 0.6}, {"measurement": "Binding of serum London to linear peptides of protein X4 of SARS-CoV Urbani", "setting": "[1]", "result": 0.8}, {"measurement": "Binding of serum London to looped/cyclic peptides of protein X4 of SARS-CoV Urbani", "setting": "[1]", "result": 0.3}, {"measurement": "Binding of serum SARS-green to linear peptides of protein X4 of SARS-CoV Urbani", "setting": "[1]", "result": 0.6}, {"measurement": "Binding of serum SARS-green to looped/cyclic peptides of protein X4 of SARS-CoV Urbani", "setting": "[1]", "result": 0.4}, {"measurement": "Binding of serum SARS-yellow to linear peptides of protein X4 of SARS-CoV Urbani", "setting": "[1]", "result": 0.7}, {"measurement": "Binding of serum SARS-yellow to looped/cyclic peptides of protein X4 of SARS-CoV Urbani", "setting": "[1]", "result": 0.3}, {"measurement": "Binding of Control Serum Blood-Bank to Looped peptides", "setting": "[2]", "result": 0.5}, {"measurement": "Binding of Control serum Blood-bank to linear peptides", "setting": "[2]", "result": 0.6}, {"measurement": "Binding of Control serum LUMC to linear peptides", "setting": "[2]", "result": 0.6}, {"measurement": "Binding of Control serum LUMC to looped peptides", "setting": "[2]", "result": 0.8}, {"measurement": "Rabbit serum linear peptides", "setting": "[3]", "result": 0.4}, {"measurement": "Rabbit serum looped peptides", "setting": "[3]", "result": 0.3}]}]}
